Where no end group is shown, it is not given here.
Columns and labels:
[1] = test system: differentiated HL60 cells; assay: Arachidonic acid (AA) release in [3H]AA-labeled dHL60 cells; format: cell-based, human; conditions: for Folds of increase (% of total), arachidonic acid release: differentiated HL60 cells, 10 μM of peptide; for AA release stimulating activity (in words) / Inhibition of AA release induced by P14, P18, P21, P24: dHL60 cells; for AA release stimulating activity (in words): 10 μM; for Inhibition of AA release induced by P14, P18, P21, P24: 1 μM peptide, MAFP, AACOCF3, BEL at 10 μM
Procedure: (§1) U937 (human histiocytic lymphoma cells), HL60 (human promyelocytic leukemia cells), Raw 264.7 (mouse macrophage), Jurkat (human acute T cell leukemia), PC12 (rat adrenal pheochromocytoma cells), 3Y1 (Rat embryonic fibroblasts), 3T3L1 (preadipocytes), and NCI-H292 (human mucoepidermoid pulmonary carcinoma cells) were obtained from the American Type Culture Collection (Rockville, Md.) and maintained as recommended. FPR- or FPRL1 expressing RBL-2H3 cells were cultured as described previously (He et al. J. Immunol. 2000. 165: 4598-4605). Cells were maintained at about 1×10^6 cells/ml under standard incubator conditions (humidified atmosphere, 95% air, 5% CO2, at 37° C.). HL60 cells were induced to differentiate into the granulocyte phenotype by adding dimethylsulfoxide (DMSO) (final concentration 1.25%, v/v) for 4 days to the culture medium, as described previously (Itoh et al. Blood. 1998. 92: 1432-1441).
For the initial screening of the PS-SPCLs, we measured the AA release stimulating activity of each peptide pool. Cultured dHL60 cells (10^7 cells/ml) were pre-labeled with 0.5 μCi/ml of (^3H)-AA in RPMI 1640 medium containing 10% FBS for 90 min at 37° C. in a humidified incubator supplied with 95% air and 5% CO2, as described previously (Bae et al. J. Immunol. 2000. 164: 4089-4096). The labeled cells were then washed twice with serum-free RPMI 1640 and incubated in RPMI 1640 medium containing 0.1% fatty acid-free BSA for 15 min at 37° C. After discarding the medium, the cells were stimulated with various concentrations of peptide for the indicated times. Radioactivity in the medium and of collected cells was determined with a liquid scintillation counter. When investigating the effects of inhibitors, cells were preincubated with the indicated concentrations of each inhibitor or vehicle for 15 min prior to stimulation.

[2] = test system: differentiated HL60 cells; assay: [Ca2+]i increase in fura-2 loaded dHL60 cells; format: cell-based, human; conditions: for [Ca^2+]i: differentiated HL60 cells, fura-2, 1 μM of peptide; for Concentration of maximal activity, [Ca^2+]i increase: data not shown
Procedure: as §1
(§2) The level of [Ca^2+]i was determined using Grynkiewicz's method using fura-2/AM (Grynkiewicz et al. J. Biol. Chem. 1985. 260: 3440-3550). Briefly, prepared cells were incubated with 3 μM of fura-2/AM at 37° C. for 50 min in serum-free RPMI 1640 medium under continuous stirring. 2×10^6 cells were aliquoted for each assay in Ca^2+ free Locke's solution (154 mM NaCl, 5.6 mM KCl, 1.2 mM MgCl2, 5 mM HEPES, pH 7.3, 10 mM glucose, and 0.2 mM EGTA). Fluorescence changes were measured at the dual excitation wavelength of 340 nm and 380 nm, and the calculated fluorescence ratio was translated into [Ca^2+]i.

[3] = test system: undifferentiated HL60 cells; assay: [Ca2+]i increase in undifferentiated HL60 cells; format: cell-based, human; conditions: peptides 10 μM (FIG. 8)
Procedure: as §1, §2

[4] = test system: human neutrophils; assay: Superoxide generation (cytochrome c reduction) in human neutrophils; format: cell-based
Procedure: Peripheral blood leukocyte concentrates were donated by the Ulsan Red Cross Blood Center (Ulsan, Korea). PBMCs were separated on a Histopaque-1077 gradient. After two washings with HBSS without Ca^2+ and Mg^2+, the PBMCs were suspended in 10% FBS containing RPMI and incubated for 60 min at 37° C. to let the monocytes attach to the culture dish. Cells were washed 5 times with warmed RPMI medium to remove lymphocytes, and then the attached monocytes were collected, as described previously (Bae et al. J. Leukoc. Biol. 1999. 65: 241-248). Human neutrophils were isolated according to standard procedures; i.e., dextran sedimentation, hypotonic lysis of erythrocytes, and using a medium lymphocyte separation gradient, as described previously (Seo et al. J. Immunol. 1997. 158: 1895-1901). Isolated human leukocytes were then used promptly.
We determined superoxide anion generation by measuring cytochrome c reduction using a microtiter 96 well plate ELISA reader (Bio-Tekinstruments, EL312e, Winooski, Vt.) as described previously (Bae et al. Blood. 2001. 97: 2854-2862). Human neutrophils (1×10^6 cells/100 μl of RPMI 1640 medium per well of a 96-well plate) were preincubated with 50 μM of cytochrome c at 37° C. for 1 min and then incubated with the indicated peptide concentrations. Superoxide generation was determined from change in light absorption at 550 nm over 5 minutes at 1 min intervals.

[5] = test system: human monocytes; assay: Chemotaxis assay (modified Boyden chamber), monocytes; format: cell-based; conditions: FIG. 6B; control peptide at concentrations less than 10 μM
Procedure: FIGS. 6A and 6B show chemotactic effect of peptides. Assays were performed using a modified Boyden chamber assay, as described in the Examples. Isolated human neutrophils (A) or monocytes (B) (1×10^6 cells/ml in serum free RPMI) were added to the upper wells of a 96-well chemotaxis chamber and migration across a 3 μm pore size (5 μm for monocytes) polycarbonate membrane was assessed after 2 hrs incubation at 37° C. The numbers of migrated cells were determined by counting them in a high power field (400×). Results are presented as means±S.E. of three independent experiments each performed in duplicate.
Chemotaxis assays were performed using multiwell chambers (Neuroprobe Inc., Gaithersburg, Md.) (Bae et al. Blood. 2001. 97: 2854-2862). Briefly, prepared human monocytes were suspended in RPMI at a concentration of 1×10^6 cells/ml, and 25 μl of the suspension was then placed onto the upper well of a chamber separated by a 5 μm polyhydrocarbon filter (3 μm pores size not polyvinylpyrrolidone coated, as is needed for neutrophils) from peptides or N-formyl-methionyl-leucyl-phenylalanine (fMLF) in the lower well. After incubation for 2 hours (90 minutes for neutrophils) at 37° C., non-migrated cells were removed by scraping, and cells that migrated across the filter were dehydrated, fixed, and stained with hematoxylin (Sigma, St. Louis, Mo.). Stained cells were counted in five randomly chosen high power fields (HPF) (400×) (Bae et al. Blood. 2001. 97: 2854-2862).

| Compound | Folds of increase (% of total), arachidonic acid release [1] | [Ca^2+]i [2] | AA release stimulating activity (in words) [1] | other results |
| --- | --- | --- | --- | --- |
| KKYYKM-NH2 [Peptide P9] | 1.49 ± 0.268 folds | 85 ± 15.8 nM | – | – |
| MKYHKM-NH2 [Peptide P19] | 1.68 ± 0.221 folds | 13 ± 3.0 nM | – | – |
| KKHHKM-NH2 [Peptide P1] | 1.25 ± 0.168 folds | 0 nM | – | [Ca^2+]i increase (in words) ([2]; dHL60 cells, 1 μM): did not affect |
| KKHHVM-NH2 [Peptide P2] | 1.23 ± 0.153 folds | 0 nM | – | – |
| KKYHVM-NH2 [Peptide P8] | 1.30 ± 0.170 folds | 31 ± 3.5 nM | – | – |
| KKYYYM-NH2 [Peptide P12] | 2.58 ± 0.168 folds | 153 ± 13.2 nM | most potent | Concentration of maximal activity, [Ca^2+]i increase ([2]; dHL60 cells): approximately 3 μM |
| CCCCC/C=C\C/C=C\C/C=C\C/C=C\CCCC(=O)C(F)(F)F [AACOCF3, reference compound] | – | – | – | Inhibition of AA release induced by P14, P18, P21, P24 [1]: almost completely prevented |
| RKYHKM-NH2 [Peptide P13] | 1.47 ± 0.220 folds | 10 ± 4.2 nM | – | – |
| KKYHKM-NH2 [Peptide P7] | 1.42 ± 0.226 folds | 0 nM | – | [Ca^2+]i increase (in words) ([2]; dHL60 cells, 1 μM): did not affect |
| RKYYKM-NH2 [Peptide P15] | 1.71 ± 0.214 folds | 77 ± 12.1 nM | – | – |
| O=C1O/C(=C/Br)CCC1c1cccc2ccccc12 (stereo not shown) [BEL, reference compound] | – | – | – | Inhibition of AA release induced by P14, P18, P21, P24 [1]: did not interfere |
| KKHYYM-NH2 [Peptide P6] | 1.52 ± 0.296 folds | 50 ± 11.7 nM | – | – |
| CSCC[C@H](NC=O)C(=O)N[C@@H](CC(C)C)C(=O)N[C@@H](Cc1ccccc1)C(=O)O [fMLF, N-formyl-methionyl-leucyl-phenylalanine, reference compound] | – | – | – | [Ca^2+]i increase in undifferentiated HL60 cells [3]: did not affect; Superoxide production ([4]; 1 μM of peptide, cytochrome c reduction): 26.5 ± 1.32 nmole/10^6 cells |
| RKYYPM-NH2 [Peptide P16] | 2.57 ± 0.450 folds | 135 ± 21.4 nM | most potent | Concentration of maximal activity, [Ca^2+]i increase ([2]; dHL60 cells): approximately 3 μM |
| CCCCC[C@H](O)/C=C/C=C\C=C\C=C\[C@@H](O)[C@@H](O)CCCC(=O)O [lipoxin A4, reference compound] | – | – | – | [Ca^2+]i increase in undifferentiated HL60 cells [3]: did not affect |
| KKHYKM-NH2 [Peptide P3] | 1.45 ± 0.306 folds | 8 ± 3.2 nM | – | – |
| CC(=O)OCOC(=O)CN(CC(=O)OCOC(C)=O)c1ccccc1OCCOc1ccccc1N(CC(=O)OCOC(C)=O)CC(=O)OCOC(C)=O [BAPTA/AM, reference compound] | – | – | – | Inhibition of AA release induced by P14, P18, P21, P24 [1]: inhibited |
| KKHYPM-NH2 [Peptide P4] | 1.41 ± 0.247 folds | 14 ± 4.1 nM | – | – |
| KKYYPM-NH2 [Peptide P10] | 2.27 ± 0.199 folds | 152 ± 28.7 nM | most potent | Concentration of maximal activity, [Ca^2+]i increase ([2]; dHL60 cells): approximately 3 μM |
| MKYHVM-NH2 [Peptide P20] | 2.55 ± 0.271 folds | 155 ± 16.3 nM | most potent | – |
| MKYYVM-NH2 [Peptide P23] | 3.05 ± 0.401 folds | 153 ± 13.2 nM | most potent | Concentration of maximal activity, [Ca^2+]i increase ([2]; dHL60 cells): approximately 3 μM |
| KKHYVM-NH2 [Peptide P5] | 1.68 ± 0.390 folds | 34 ± 9.5 nM | – | – |
| Nc1ncnc2c1ncn2[C@@H]1O[C@H](COP(=O)(O)OP(=O)(O)OP(=O)(O)O)[C@@H](O)[C@H]1O [ATP, reference compound] | – | – | – | [Ca^2+]i increase (in words) ([2]; dHL60 cells, 500 μM of ATP (FIG. 4)): stimulated; Effect of PTX on agonist-induced [Ca^2+]i rise ([2]; dHL60 cells, PTX 150 ng/ml for 20 hr): not inhibited |
| MKYYPM-NH2 [Peptide P22] | 2.95 ± 0.668 folds | 168 ± 21.6 nM | most potent | Concentration of maximal activity, [Ca^2+]i increase ([2]; dHL60 cells): approximately 3 μM |
| RKYYVM-NH2 [Peptide P17] | 2.82 ± 0.210 folds | 143 ± 10.2 nM | most potent | Cellular chemotaxis in human monocytes (in words) [5]: induced cellular chemotaxis; Superoxide generation (in words) [4]: stimulate superoxide generation in a concentration-dependent manner; Concentration of maximal activity, [Ca^2+]i increase ([2]; dHL60 cells): approximately 3 μM |
| KKYYVM-NH2 [Peptide P11] | 2.49 ± 0.023 folds | 158 ± 25.3 nM | most potent | Concentration of maximal activity, [Ca^2+]i increase ([2]; dHL60 cells): approximately 3 μM |

Source: patent US7622551B2, “Leukocyte stimulating peptides” (POSCO, priority 2004, dated 2009)
